In patent US12516046B2, “2-oxo-oxazolidine-5-carboxamides as NAV1.8 inhibitors” (Merck Sharp & Dohme LLC, priority 2020, dated 2026):

Molecular target: human Nav1.8 (Homo sapiens (Human), UniProt Q9Y5Y9)
Test: Nav1.8 Qube® Assay (automated 384-well patch-clamp)
Type: cell-based
Details: human Nav1.8 channels stably expressed in HEK 293 cells
Description: Qube® Assay Experimental Procedure

Sequence of human Nav1.8 (Q9Y5Y9 whole entry): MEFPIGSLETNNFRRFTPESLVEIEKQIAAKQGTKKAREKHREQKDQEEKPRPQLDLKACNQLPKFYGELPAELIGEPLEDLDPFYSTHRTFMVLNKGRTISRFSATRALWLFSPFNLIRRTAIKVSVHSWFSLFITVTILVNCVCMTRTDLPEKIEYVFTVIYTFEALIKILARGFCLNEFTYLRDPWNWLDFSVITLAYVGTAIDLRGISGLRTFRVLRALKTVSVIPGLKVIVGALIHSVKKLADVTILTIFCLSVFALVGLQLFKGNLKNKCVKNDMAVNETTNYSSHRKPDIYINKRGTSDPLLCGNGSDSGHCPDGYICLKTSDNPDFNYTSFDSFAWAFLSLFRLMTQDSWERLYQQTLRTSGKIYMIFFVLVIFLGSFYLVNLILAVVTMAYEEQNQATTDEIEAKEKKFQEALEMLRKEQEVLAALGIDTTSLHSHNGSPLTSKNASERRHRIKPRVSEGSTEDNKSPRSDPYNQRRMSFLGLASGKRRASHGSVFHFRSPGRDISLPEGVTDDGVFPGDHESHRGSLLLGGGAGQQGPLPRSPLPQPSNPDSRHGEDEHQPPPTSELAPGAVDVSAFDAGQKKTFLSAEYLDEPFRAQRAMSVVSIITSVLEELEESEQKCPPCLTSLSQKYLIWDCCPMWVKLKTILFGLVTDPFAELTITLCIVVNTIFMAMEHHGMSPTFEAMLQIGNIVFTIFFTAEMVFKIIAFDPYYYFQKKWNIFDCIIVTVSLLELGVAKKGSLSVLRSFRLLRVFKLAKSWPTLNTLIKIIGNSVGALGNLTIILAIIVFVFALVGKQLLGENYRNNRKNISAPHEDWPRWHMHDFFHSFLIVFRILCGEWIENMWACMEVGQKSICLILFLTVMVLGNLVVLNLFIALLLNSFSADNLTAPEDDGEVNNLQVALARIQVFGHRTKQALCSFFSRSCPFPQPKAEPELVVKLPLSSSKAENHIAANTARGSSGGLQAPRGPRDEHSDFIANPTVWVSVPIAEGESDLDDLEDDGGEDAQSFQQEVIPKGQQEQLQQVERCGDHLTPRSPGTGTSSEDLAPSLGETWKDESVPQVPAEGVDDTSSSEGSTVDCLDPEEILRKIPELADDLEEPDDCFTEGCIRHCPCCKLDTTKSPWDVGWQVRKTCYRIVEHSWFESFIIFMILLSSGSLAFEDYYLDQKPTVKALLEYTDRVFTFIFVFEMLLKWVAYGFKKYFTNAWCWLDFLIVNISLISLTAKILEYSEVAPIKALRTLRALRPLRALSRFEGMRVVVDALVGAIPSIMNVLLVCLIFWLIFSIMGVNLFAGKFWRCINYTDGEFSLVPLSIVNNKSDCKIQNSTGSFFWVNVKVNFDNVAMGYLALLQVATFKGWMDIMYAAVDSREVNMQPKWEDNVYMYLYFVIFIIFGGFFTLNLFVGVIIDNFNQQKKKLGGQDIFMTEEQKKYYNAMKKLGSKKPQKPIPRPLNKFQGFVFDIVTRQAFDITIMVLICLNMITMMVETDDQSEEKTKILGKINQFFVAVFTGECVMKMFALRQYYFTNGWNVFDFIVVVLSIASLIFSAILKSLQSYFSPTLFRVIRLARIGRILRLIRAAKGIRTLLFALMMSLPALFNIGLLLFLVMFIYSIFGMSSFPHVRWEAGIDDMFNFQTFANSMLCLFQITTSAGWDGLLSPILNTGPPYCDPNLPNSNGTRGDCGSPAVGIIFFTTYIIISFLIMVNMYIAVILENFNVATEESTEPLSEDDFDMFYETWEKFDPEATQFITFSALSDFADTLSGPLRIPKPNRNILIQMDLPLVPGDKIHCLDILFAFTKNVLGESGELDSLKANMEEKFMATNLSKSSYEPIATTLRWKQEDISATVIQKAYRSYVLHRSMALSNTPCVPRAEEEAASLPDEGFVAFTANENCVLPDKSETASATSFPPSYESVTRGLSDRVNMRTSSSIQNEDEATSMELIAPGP

Row | Compound | IC50
1 | O=C1NC[C@@H](C(=O)NC(c2ccc(F)c(Cl)c2)c2cnn(CC(F)(F)F)c2)O1 (single isomer, unassigned) [Example 59B, (S)-N-((R or S)-(3-chloro-4-fluorophenyl)(1-(2,2,2-trifluoroethyl)-1H-pyrazol-4-yl)methyl)-2-oxooxazolidine-5-carboxamide] | 693 nM
2 | O=C1NC[C@@H](C(=O)NC(c2ccc(F)c(Cl)c2)c2ccn(C(F)F)n2)O1 (single isomer, unassigned) [Example 60A, (S)-N-((R or S)-(3-chloro-4-fluorophenyl)(1-(difluoromethyl)-1H-pyrazol-3-yl)methyl)-2-oxooxazolidine-5-carboxamide] | 231 nM
3 | O=C1NC[C@@H](C(=O)NC(c2ccc(F)c(Cl)c2)c2ccn(C(F)F)n2)O1 (single isomer, unassigned) [Example 60B, (S)-N-((R or S)-(3-chloro-4-fluorophenyl)(1-(difluoromethyl)-1H-pyrazol-3-yl)methyl)-2-oxooxazolidine-5-carboxamide] | 124 nM
4 | Cn1nc(C(F)(F)F)cc1C(NC(=O)[C@@H]1CNC(=O)O1)c1ccc(F)c(Cl)c1 (single isomer, unassigned) [Example 61A, (S)-N-((R or S)-(3-chloro-4-fluorophenyl)(1-methyl-3-(trifluoromethyl)-1H-pyrazol-5-yl)methyl)-2-oxooxazolidine-5-carboxamide] | 4.6 nM
5 | Cn1nc(C(F)(F)F)cc1C(NC(=O)[C@@H]1CNC(=O)O1)c1ccc(F)c(Cl)c1 (single isomer, unassigned) [Example 61B, (S)-N-((R or S)-(3-chloro-4-fluorophenyl)(1-methyl-3-(trifluoromethyl)-1H-pyrazol-5-yl)methyl)-2-oxooxazolidine-5-carboxamide] | 231 nM
6 | Cn1nc(C(NC(=O)[C@@H]2CNC(=O)O2)c2ccc(F)c(Cl)c2)cc1C(F)(F)F (single isomer, unassigned) [Example 62A, (S)-N-((R or S)-(3-chloro-4-fluorophenyl)(1-methyl-5-(trifluoromethyl)-1H-pyrazol-3-yl)methyl)-2-oxooxazolidine-5-carboxamide] | 39 nM
7 | Cn1nc(C(NC(=O)[C@@H]2CNC(=O)O2)c2ccc(F)c(Cl)c2)cc1C(F)(F)F (single isomer, unassigned) [Example 62B, (S)-N-((R or S)-(3-chloro-4-fluorophenyl)(1-methyl-5-(trifluoromethyl)-1H-pyrazol-3-yl)methyl)-2-oxooxazolidine-5-carboxamide] | 11 nM
8 | O=C1NC[C@@H](C(=O)NC(c2ccc(Cl)c(C(F)(F)F)n2)C2CCC(F)(F)CC2)O1 (single isomer, unassigned) [Example 63A, (S)-N-((R or S)-(5-chloro-6-(trifluoromethyl)pyridin-2-yl)(4,4-difluoro-cyclohexyl)methyl)-2-oxooxazolidine-5-carboxamide] | 12 nM
9 | O=C1NC[C@@H](C(=O)NC(CCc2ccc(Cl)cc2)c2ccc(F)c(Cl)c2F)O1 (single isomer, unassigned) [Example 65A, (S)—N—((R or S)-1-(3-chloro-2,4-difluorophenyl)-3-(4-chlorophenyl)propyl)-2-oxooxazolidine-5-carboxamide] | 94 nM
10 | O=C1NC[C@@H](C(=O)NC(CCc2ccc(Cl)cc2)c2ccc(F)c(Cl)c2F)O1 (single isomer, unassigned) [Example 65B, (S)—N—((R or S)-1-(3-chloro-2,4-difluorophenyl)-3-(4-chlorophenyl)propyl)-2-oxooxazolidine-5-carboxamide] | 11 nM
11 | N#Cc1cc(C(NC(=O)[C@@H]2CNC(=O)O2)c2ccc(F)c(Cl)c2)ccc1F (single isomer, unassigned) [Example 69, (S)-N-((R or S)-(3-chloro-4-fluorophenyl)(3-cyano-4-fluorophenyl)methyl)-2-oxooxazolidine-5-carboxamide] | 16 nM
12 | O=C1NC[C@@H](C(=O)NC(c2ccc(Cl)cc2)c2ccc(OCC(F)(F)F)nn2)O1 (single isomer, unassigned) [Example 73A, (S)-N-((R or S)-(4-chlorophenyl)(6-(2,2,2-trifluoroethoxy)pyridazin-3-yl)methyl)-2-oxooxazolidine-5-carboxamide] | 964 nM
13 | O=C1NC[C@@H](C(=O)NC(c2ccc(Cl)cc2)c2ccc(OCC(F)(F)F)nn2)O1 (single isomer, unassigned) [Example 73B, (S)-N-((R or S)-(4-chlorophenyl)(6-(2,2,2-trifluoroethoxy)pyridazin-3-yl)methyl)-2-oxooxazolidine-5-carboxamide] | 80 nM
14 | O=C1NC[C@@H](C(=O)NC(c2ccc(F)c(Cl)c2)c2ccc(F)c(Cl)c2)O1 [Example 10, (S)-N-(bis(3-chloro-4-fluorophenyl)methyl)-2-oxooxazolidine-5-carboxamide] | 0.7 nM
15 | CS(=O)(=O)c1cccc(C(NC(=O)[C@@H]2CNC(=O)O2)c2ccc(Cl)cc2)c1 (stereo partly drawn) [Example 27, (5S)-N-((4-chlorophenyl)(3-(methylsulfonyl)phenyl)methyl)-2-oxooxazolidine-5-carboxamide] | 705 nM
16 | O=C1NC[C@@H](C(=O)NC(c2ccc(Cl)cc2)c2ccnc(C(F)(F)F)c2)O1 (stereo partly drawn) [Example 34] | 94 nM
17 | O=C1NC[C@@H](C(=O)NC(c2ccc(Cl)cc2)c2ccc(OC(F)F)nc2)O1 (stereo partly drawn) [Example 36, (5S)-N-((4-chlorophenyl)(6-(difluoromethoxy)pyridin-3-yl)methyl)-2-oxooxazolidine-5-carboxamide] | 69 nM
18 | O=C1NC[C@@H](C(=O)NC(c2ccc(F)c(Cl)c2)c2ccc(F)c(C(F)(F)F)n2)O1 (stereo partly drawn) [Example 38, (5S)-N-((3-chloro-4-fluorophenyl)(5-fluoro-6-(trifluoromethyl)pyridin-2-yl)methyl)-2-oxooxazolidine-5-carboxamide] | 2.1 nM
19 | O=C1NC[C@@H](C(=O)NC(c2ccc(Cl)cc2)c2nc(C(F)(F)F)c[nH]2)O1 (stereo partly drawn) [Example 40, (5S)-N-((4-chlorophenyl)(4-(trifluoromethyl)-1H-imidazol-2-yl)methyl)-2-oxooxazolidine-5-carboxamide] | 397 nM
20 | CC(NC(=O)[C@@H]1CNC(=O)O1)(c1ccc(Cl)cc1)c1ccc(Cl)cc1 [Example 41, (S)-N-(1,1-bis(4-chlorophenyl)ethyl)-2-oxooxazolidine-5-carboxamide] | 378 nM
21 | O=C1NC[C@@H](C(=O)NC(c2ccc(C(F)(F)F)nc2)c2csc(C(F)(F)F)n2)O1 (stereo partly drawn) [Example 64, (5S)-2-oxo-N-((6-(trifluoromethyl)pyridin-3-yl)(2-(trifluoromethyl)thiazol-4-yl)methyl)oxazolidine-5-carboxamide] | 129 nM
22 | O=C1NC[C@@H](C(=O)NC(COc2ccc(C(F)(F)F)nc2)c2ccc(F)c(Cl)c2)O1 (stereo partly drawn) [Example 66, (5S)-N-(1-(3-chloro-4-fluorophenyl)-2-((6-(trifluoro-methyl)pyridin-3-yl)oxy)ethyl)-2-oxooxazolidine-5-carboxamide] | 268 nM
23 | O=C1NC[C@@H](C(=O)NC(CC2CCCCC2)c2ccc(F)c(Cl)c2F)O1 (stereo partly drawn) [Example 67, (S)-N-(1-(3-chloro-2,4-difluorophenyl)-2-cyclohexylethyl)-2-oxooxazolidine-5-carboxamide] | 21 nM

Results, then the molecule that gave them:

Row | IC50 | Compound
24 | 574 nM | O=C1NC[C@@H](C(=O)NC(c2ccc(Cl)c(C(F)(F)F)n2)C2CCC(F)(F)CC2)O1 (single isomer, unassigned) [Example 63B, (S)-N-((R or S)-(5-chloro-6-(trifluoromethyl)pyridin-2-yl)(4,4-difluoro-cyclohexyl)methyl)-2-oxooxazolidine-5-carboxamide]
25 | 5.4 nM | O=C1NC[C@@H](C(=O)NC(c2ccc(F)c(Cl)c2F)[C@H]2C[C@H](C(F)(F)F)C2)O1 (single isomer, unassigned) [Example 70, (S)—N—((R or S)-(3-chloro-2,4-difluorophenyl)((trans)-3-(trifluoromethyl)cyclobutyl)methyl)-2-oxooxazolidine-5-carboxamide]
26 | 11 nM | O=C1NC[C@@H](C(=O)NC(c2ccc(F)c(Cl)c2F)[C@@H]2C[C@@H]3[C@H](C2)C3(F)F)O1 (single isomer, unassigned) [Example 74A, (S)-N-((R or S)-(3-chloro-2,4-difluorophenyl) ((trans)-6,6-difluorobicyclo[3.1.0]hexan-3-yl)methyl)-2-oxooxazolidine-5-carboxamide]
27 | 389 nM | O=C1NC[C@@H](C(=O)NC(c2ccc(F)c(Cl)c2F)[C@@H]2C[C@@H]3[C@H](C2)C3(F)F)O1 (single isomer, unassigned) [Example 74B, (S)-N-((R or S)-(3-chloro-2,4-difluorophenyl) ((trans)-6,6-difluorobicyclo[3.1.0]hexan-3-yl)methyl)-2-oxooxazolidine-5-carboxamide]
28 | 32 nM | O=C1NC[C@@H](C(=O)NC(c2ccccc2)c2cc(Cl)cc(Cl)c2)O1 (stereo partly drawn) [Example 20, (5S)-N-((3,5-dichlorophenyl) (phenyl)methyl)-2-oxooxazolidine-5-carboxamide]
29 | 293 nM | O=C1NC[C@@H](C(=O)NC(c2ccccc2)C2C3CC4CC(C3)CC2C4)O1 (stereo partly drawn) [Example 21, (5S)-N-((adamantan-2-yl)(phenyl)methyl)-2-oxooxazolidine-5-carboxamide]
30 | 144 nM | O=C1NC[C@@H](C(=O)NC(c2ccc(Cl)cc2)c2cccs2)O1 (stereo partly drawn) [Example 24, (5S)-N-((4-chlorophenyl)(thio-phen-2-yl)methyl)-2-oxooxazolidine-5-carboxamide]
31 | 2.4 nM | O=C1NC[C@@H](C(=O)NC(c2ccc(Cl)cc2)c2cccc3ccccc23)O1 (stereo partly drawn) [Example 30, (5S)-N-((4-chlorophenyl) (naphthalen-1-yl)methyl)-2-oxooxazolidine-5-carboxamide]
32 | 3.9 nM | O=C1NC[C@@H](C(=O)NC(c2ccc(Cl)cc2)c2ccc3ccccc3c2)O1 (stereo partly drawn) [Example 31, (5S)-N-((4-chlorophenyl) (naphthalen-2-yl)methyl)-2-oxooxazolidine-5-carboxamide]
33 | 87 nM | O=C1NC[C@@H](C(=O)NC(c2ccc(Cl)cc2)C2CCCCCC2)O1 (stereo partly drawn) [Example 45, (5S)-N-((4-chlorophenyl)(cyclo-heptyl)methyl)-2-oxooxazolidine-5-carboxamide]
